Our source for the IC50 values is patent US7402606B2, “Derivatives of 1-(oxoaminoacetyl) pentylcarbamate as cathepsin K inhibitors for the treatment of bone loss” (SmithKline Beecham Corporation, priority 2002, dated 2008).

Each structure is given as a SMILES string.

This experiment concerns the target T1, human cathepsin K (Homo sapiens, UniProt P43235).
T1 construct: The proform of cathepsin K was converted to mature cathepsin K by brief exposure to pH 4; made in house; host or cells: baculovirus; Trichoplusia ni High Five cells (virus raised in Sf-9)
T1 sequence (P43235 115-329): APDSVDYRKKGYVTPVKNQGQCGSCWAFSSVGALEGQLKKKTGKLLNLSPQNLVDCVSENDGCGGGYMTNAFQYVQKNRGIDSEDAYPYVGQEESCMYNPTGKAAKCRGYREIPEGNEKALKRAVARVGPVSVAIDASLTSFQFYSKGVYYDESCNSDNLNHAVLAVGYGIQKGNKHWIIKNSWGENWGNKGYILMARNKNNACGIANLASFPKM
The experiment is described as follows: Cathepsin K inhibition assay, human recombinant enzyme, fluorogenic substrate Cbz-Phe-Arg-AMC. Format: biochemical. Particulars: Table 1, human cathepsin K; read-out: h Cat K IC50. The protocol: All assays for cathepsin K were carried out with human and rat recombinant enzyme. Assays for cathepsins S ? V were also carried out with human recombinant enzyme. Assays for human cathepsins B, H, and L were carried out with enzyme, purchased from Athens Research and Technology, Inc., prepared from human liver tissue. […] A stock substrate solution of Cbz-Phe-Arg-AMC was prepared at a concentration of 50 mM in dimethyl sulfoxide. This substrate was diluted into the assay for a final substrate concentration of 10 μM in the rat cathepsin K, human cathepsin K, and human cathepsin B assays; a final substrate concentration of 5 μM in the human cathepsin L assay; and a final substrate concentration of 2 μM in the human cathepsin V assay.
All assays contained 10% dimethyl sulfoxide. […] All assays were conducted at 30° C. Product fluorescence (excitation at 360 nm; emission at 440 nm, (except cathepsin H which used excitation at 340 nm; emission at 420 nm)) was monitored with a PerSeptive Biosystems Cytofluor II fluorescence plate reader. Product progress curves were generated over 2.3 h monitoring the formation of 7-amino-4-methylcoumarin product (or β-naphthalamide for cathepsin H).
Human and rat Cathepsin K:
Two liters of Spodoptera frugiperda (Sf-9) cells (ATCC) were grown in Grace's Supplemented medium (Life Technologies) supplemented with 2 g/L glucose, 10% fetal bovine serum (HyClone) and 0.1% pluronic F-68 (Life Technologies). […] The cells continued to grow for 72 h post-infection, before the virus was harvested by centrifugation at 1400×g for 30 min.
One and one-half liters of Trichoplusia ni (T. ni) High Five (™) cells [JRH Biosciences, Woodland, Calif. […] The cells were grown for 24 h at 28° C., 50 RPM, and 50% dissolved oxygen. […] Media were separated from cells at a rate of 1 L/min using the Centritech 100 ™ continuous-flow centrifuge (DuPont) operating at 200×g.
Protein Purification: Media (human and rat) were filtered through a Whatman 3 filter, and then loaded onto a 25 mL. Poros HS II (26 mm×47 mm) cation exchange column equilibrated in 25 mM sodium acetate at pH 5.5 (equilibration buffer). The column was washed until the absorbance reached the baseline value, and then the protein was eluted with a linear gradient from 0-2 M sodium chloride in the equilibration buffer. Column fractions were analyzed by SDS-PAGE, N-terminal sequencing, and mass spectrometry. Fractions containing the proform of cathepsin K were pooled and frozen at −80° C. The proform was concentrated in an Amicon Centriprep 10 and fractionated with a Superdex 75 column (26 mm×600 mm, Pharmacia) equilibrated in 400 mM sodium chloride, 25 mM sodium acetate at pH 5.5.
Cathepsin K Activation: The proform of cathepsin K was converted to mature cathepsin K by brief exposure to pH 4 in the presence of 5 mM L-cysteine. Typically, 5 mM L-cysteine was added to 10 mL of approximately 1 mg/mL procathepsin K. One mL of this solution was diluted ten-fold into 450 mM sodium acetate at pH 4.0 containing 5 mM L-cysteine. This solution was reacted at 23° C. for 2 min before neutralization with 2 mL, 1.8 M sodium acetate at pH 6.0. The neutralized sample was added to the remaining 9 mL of procathepsin K. The mixture was incubated at 4° C. for 2-3 days. The activated cathepsin K was chromatographed on a Poros HS II column as described above.
Potential inhibitors were evaluated using the progress curve method. Assays were carried out in the presence of variable concentrations of test compound. Reactions were initiated by addition of buffered solutions of inhibitor and substrate to enzyme. Data analysis was conducted according to one of two procedures depending on the appearance of the progress curves in the presence of inhibitors. […] Ki values were calculated from IC50 values using equation 2 assuming a competitive model.
As a reminder, the IC50 is the concentration that inhibits the measured activity by half. Turning to `CCCC[C@H](NC(=O)O[C@@H]1CN(C(=O)CCCc2ccccc2)CC1(C)C)C(=O)C(=O)N[C@H](C)c1ccccc1` [Example 24, (3S)-4,4-Dimethyl-1-(4-phenylbutanoyl)pyrrolidinyl (1S)-1-(oxo {[(1R)-1-phenylethyl]amino}acetyl)pentylcarbamate], the IC50 is 10 to 100 nM.

As for `CCCC[C@H](NC(=O)O[C@@H]1CN(C(=O)Cc2ccc(C(C)(C)C)cc2)CC1(C)C)C(=O)C(=O)N[C@H](C)c1ccccc1` [Example 25, (3S)-1-[(4-tert-Butylphenyl)acetyl]-4,4-dimethylpyrrolidinyl (1S)-1-(oxo{[(1R)-1-phenylethyl]amino}acetyl)pentylcarbamate], the IC50 fell in the range of 10 to 100 nM. The figure for `CCCC[C@H](NC(=O)O[C@@H]1CN(C(=O)c2csc(-c3ccncc3)n2)CC1(C)C)C(=O)C(=O)N[C@H](C)c1ccccc1` [Example 26, (3S)-4,4-Dimethyl-1-{[2-(4-pyridinyl)-1,3-thiazol-4-yl]carbonyl}pyrrolidinyl (1S)-1-(oxo{[(1R)-1-phenylethyl]amino}acetyl)pentylcarbamate] is 10 to 100 nM. Regarding `CCCC[C@H](NC(=O)O[C@@H]1CN(C(=O)c2c(-c3ccccc3)noc2C)CC1(C)C)C(=O)C(=O)N[C@H](C)c1ccccc1` [Example 27, (3S)-4,4-Dimethyl-1-[(5-methyl-3-phenyl-4-isoxazolyl)carbonyl]pyrrolidinyl (1S)-1-(oxo{[(1R)-1-phenylethyl]amino}acetyl)pentylcarbamate], the IC50 lay in the range of 10 to 100 nM. In the case of `CCCC[C@H](NC(=O)O[C@@H]1CN(C(=O)c2cc3ccccc3n2C)CC1(C)C)C(=O)C(=O)N[C@H](C)c1ccccc1` [Example 28, (3S)-4,4-Dimethyl-1-[(1-methyl-1H-indol-2-yl)carbonyl]pyrrolidinyl (1S)-1-(oxo{[(1R)-1-phenylethyl]amino}acetyl)pentylcarbamate] it was 10 to 100 nM; in that of `CCCC[C@H](NC(=O)O[C@@H]1CN(C(=O)c2cnc3ccccc3c2)CC1(C)C)C(=O)C(=O)N[C@H](C)c1ccccc1` [Example 29, (3S)-4,4-Dimethyl-(3-quinolinylcarbonyl)pyrrolidinyl 1-(oxo{[(1R)-1-phenylethyl]amino}acetyl)pentylcarbamate], 10 to 100 nM; in that of `CCCC[C@H](NC(=O)O[C@@H]1CN(C(=O)Cc2ccc(-c3ccccc3)cc2)CC1(C)C)C(=O)C(=O)N[C@H](C)c1ccccc1` [Example 30, (3S)-1-([1,1′-Biphenyl]-4-ylacetyl)-4,4-dimethylpyrrolidinyl (1S)-1-(oxo {[(1R)-1-phenylethyl]amino}acetyl)pentylcarbamate], 10 to 100 nM. As to `CCCC[C@H](NC(=O)O[C@@H]1CN(C(=O)Cc2ccccc2Oc2ccccc2)CC1(C)C)C(=O)C(=O)N[C@H](C)c1ccccc1` [Example 31, (3S)-4,4-Dimethyl-1-[(2-phenoxyphenyl)acetyl]pyrrolidinyl (1S)-1-(oxo{[(1R)-1-phenylethyl]amino}acetyl)pentylcarbamate], the IC50 fell in the range of 10 to 100 nM. Regarding `CCCC[C@H](NC(=O)O[C@@H]1CN(C(=O)c2cc3ccccc3[nH]2)CC1(C)C)C(=O)C(=O)N[C@H](C)c1ccccc1` [Example 32, (3S)-1-(1H-Indol-2-ylcarbonyl)-4,4-dimethylpyrrolidinyl (1S)-1-(oxo {[(1R)-1-phenylethyl]amino}acetyl)pentylcarbamate], the IC50 lay in the range of 10 to 100 nM. `CCCCC(NC(=O)O[C@@H]1CN(C(=O)Cc2cccnc2)CC1(C)C)C(=O)C(=O)N[C@H](C)c1ccccc1` (stereo partly drawn) [Example 33, (3S)-4,4-Dimethyl-1-(3-pyridinylacetyl)pyrrolidinyl 1-(oxo{[(1R)-1-phenylethyl]amino}acetyl)pentylcarbamate]: the IC50 is 10 to 100 nM.

Regarding `CCCC[C@H](NC(=O)O[C@@H]1CN(C(=O)c2nc[nH]n2)CC1(C)C)C(=O)C(=O)N[C@H](C)c1ccccc1` [Example 34, (3S)-4,4-Dimethyl-1-(1H-1,2,4-triazol-3-ylcarbonyl)pyrrolidinyl (1S)-1-(oxo{[(1R)-1-phenylethyl]amino}acetyl)pentylcarbamate], the IC50 was in the range of 10 to 100 nM. The figure for `CCCC[C@H](NC(=O)O[C@@H]1CN(C(=O)Cc2cc(C)no2)CC1(C)C)C(=O)C(=O)N[C@H](C)c1ccccc1` [Example 35, (3S)-4,4-Dimethyl-1-[(3-methyl-5-isoxazolyl)acetyl]pyrrolidinyl (1S)-1-(oxo{[(1R)-1-phenylethyl]amino}acetyl)pentylcarbamate] is 1 to 10 nM; for `CCCC[C@H](NC(=O)O[C@@H]1CN(C(=O)c2n[nH]c3ccccc23)CC1(C)C)C(=O)C(=O)N[C@H](C)c1ccccc1` [Example 36, (3S)-1-(1H-Indazol-3-ylcarbonyl)-4,4-dimethylpyrrolidinyl (1S)-1-(oxo {[(1R)-1-phenylethyl]amino}acetyl)pentylcarbamate] it is 1 to 10 nM; for `CCCC[C@H](NC(=O)O[C@@H]1CN(C(=O)c2csc(-c3snnc3C)n2)CC1(C)C)C(=O)C(=O)N[C@H](C)c1ccccc1` [Example 37, (3S)-4,4-Dimethyl-1-{[2-(4-methyl-1,2,3-thiadiazol-5-yl)-1,3-thiazol-4-yl]carbonyl}pyrrolidinyl (1S)-1-(oxo{[(1R)-1-phenylethyl]amino}acetyl)pentylcarbamate] it is 10 to 100 nM.

For `CCCC[C@H](NC(=O)O[C@@H]1CN(C(=O)Cc2csc(-c3cnccn3)n2)CC1(C)C)C(=O)C(=O)N[C@H](C)c1ccccc1` [Example 38, (3S)-4,4-Dimethyl-1-{[2-(2-pyrazinyl)-1,3-thiazol-4-yl]acetyl-}pyrrolidinyl (1S)-1-(oxo{[(1R)-1-phenylethyl]amino}acetyl)pentylcarbamate], the IC50 is 10 to 100 nM. In the case of `CCCC[C@H](NC(=O)O[C@@H]1CN(C(=O)Cc2ccc(F)cc2)CC1(C)C)C(=O)C(=O)N[C@H](C)c1ccccc1` [Example 39, (3S)-1-[(4-Fluorophenyl)acetyl]-4,4-dimethylpyrrolidinyl (1S)-1-(oxo{[(1R)-1-phenylethyl]amino}acetyl)pentylcarbamate] it was 10 to 100 nM. In the case of `CCCC[C@H](NC(=O)O[C@@H]1CN(C(=O)OCc2ccc(-c3ccccc3)cc2)CC1(C)C)C(=O)C(=O)N[C@H](C)c1ccccc1` [Example 40, [1,1′-biphenyl]-4-ylmethyl (4S)-3,3-dimethyl-4-[({[(1S)-1-(oxo{[(1R)-1-phenylethyl]amino}acetyl)pentyl]amino}carbonyl)oxy]-1-pyrrolidinecarboxylate] it was 1 to 10 nM; in that of `CCCC[C@H](NC(=O)O[C@@H]1CN(C(=O)OCC2CCCO2)CC1(C)C)C(=O)C(=O)N[C@H](C)c1ccccc1` (stereo partly drawn) [Example 41, Tetrahydro-2-furanylmethyl (4S)-3,3-dimethyl-4-[({[(1S)-1-(oxo{[(1R)-1-phenylethyl]amino}acetyl)pentyl]amino}carbonyl)oxy]-1-pyrrolidinecarboxylate], 1 to 10 nM.

On to `CCCC[C@H](NC(=O)O[C@@H]1CN(C(=O)OCc2ccsc2)CC1(C)C)C(=O)C(=O)N[C@H](C)c1ccccc1` [Example 42, 3-Thienylmethyl (4S)-3,3-dimethyl-4-[({[(1S)-1-(oxo {[(1R)-1-phenylethyl]amino}acetyl)pentyl]amino}carbonyl)oxy]-1-pyrrolidinecarboxylate], for which the IC50 was 10 to 100 nM.
